# From US12448388B2, “PRMT5 inhibitors and uses thereof” (Gilead Sciences, Inc., priority 2023, dated 2025)
# Test system: HCT116 MTAP-deleted cell lines
# Assay: Cell viability assay (CellTiter-Glo, 7 days), HCT116 MTAP-deleted
# Format: cell-based
# Conditions: Homo sapiens, HCT-116; cell viability assay, HCT116 MTAP-deleted; class symbols; read-out: CC50
# Method in brief: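 Luminescent ATP readout (CellTiter-Glo) after 7 days of continuous compound exposure gives the CC50 value. Cells were plated onto pre-dispensed DMSO dilution series of the PRMT5 inhibitors and kept at 37 °C in 5% CO2.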
row,Compound,CC50
1,"C[C@@H]1OC[C@H](N(C)C(=O)c2ccc3nc(N)c4cncn4c3c2)c2ccc(C(F)(F)F)cc21 (single isomer, unassigned) [Ff-470]",< 100 nM
2,"C[C@H]1OC[C@@H](N(C)C(=O)c2ccc3nc(N)c4cncn4c3c2)c2ccc(C(F)(F)F)cc21 (single isomer, unassigned) [Ff-471]",< 100 nM
3,"CN(C(=O)c1cc2c(cc1F)nc(N)c1cncn12)[C@@H]1COc2cc([C@@H]3C[C@H]3C#N)ccc21 (single isomer, unassigned) [Ff-480]",< 100 nM
4,"CN(C(=O)c1cc2c(cc1F)nc(N)c1cncn12)[C@@H]1COc2cc([C@H]3C[C@@H]3C#N)ccc21 (single isomer, unassigned) [Ff-481]",< 100 nM
5,"C[C@@H]1CC[C@@H]2Oc3cc(OC(F)(F)F)ccc3[C@@H]2N1C(=O)c1cc2c(cc1F)nc(N)c1cncn12 (single isomer, unassigned) [Ff-491]",< 100 nM
6,"CN(C(=O)c1cc2c(cc1F)nc(N)c1cnc(Br)n12)[C@@H]1COc2cc(C(F)(F)F)ccc21 (single isomer, unassigned) [Ff-493]",100 to 1000 nM
7,"CN(C(=O)c1cc2c(cc1F)nc(N)c1c(Br)ncn12)[C@@H]1COc2cc(C(F)(F)F)ccc21 (single isomer, unassigned) [Ff-494]",100 to 1000 nM
8,"Nc1nc2cc(F)c(C(=O)N3CCC[C@@H]4Oc5cc(C(F)(F)F)ccc5[C@@H]43)cc2n2c(Br)ncc12 (single isomer, unassigned) [Ff-495]",100 to 1000 nM
9,"C[C@H]1CN(C(=O)c2cc3c(cc2F)nc(N)c2cnc(Br)n23)[C@H]2c3ccc(C(F)(F)F)cc3C[C@H]2O1 (single isomer, unassigned) [Ff-496]",100 to 1000 nM
10,"CN(C(=O)c1cc2c(cc1F)nc(N)c1cncn12)[C@@H]1COc2cc([C@@H]3C[C@H]3C(F)F)ccc21 (single isomer, unassigned) [Ff-504]",< 100 nM
11,"CN(C(=O)c1cc2c(cc1F)nc(N)c1cncn12)[C@@H]1COc2cc([C@H]3C[C@@H]3C(F)F)ccc21 (single isomer, unassigned) [Ff-505]",< 100 nM
12,"Nc1nc2cc(F)c(C(=O)N3CCOC[C@@H]3c3ccc(C(F)(F)F)cn3)cc2n2cncc12 (single isomer, unassigned) [Ff-547]",< 100 nM
13,"Nc1nc2cc(F)c(C(=O)N3CCOC[C@@H]3c3ccc(OC(F)(F)F)cc3)cc2n2cncc12 (single isomer, unassigned) [Ff-555]",< 100 nM
14,"Nc1nc2cc(F)c(C(=O)N3CCOC[C@H]3c3ccc(OC(F)(F)F)cc3)cc2n2cncc12 (single isomer, unassigned) [Ff-556]",100 to 1000 nM
15,"CN(C(=O)c1cc2c(cc1F)nc(N)c1cncn12)[C@@H]1COc2cc(OC(F)(F)F)ccc21 (single isomer, unassigned) [Ff-557]",< 100 nM
16,"CN(C(=O)c1cc2c(cc1F)nc(N)c1cncn12)[C@H]1COc2cc(OC(F)(F)F)ccc21 (single isomer, unassigned) [Ff-558]",100 to 1000 nM

row,Compound,CC50
1,"CN(C(=O)c1cc2c(cc1F)nc(N)c1cncn12)[C@@H]1COc2cc(OC(F)F)ccc21 (single isomer, unassigned) [Ff-559]",< 100 nM
2,"CN(C(=O)c1cc2c(cc1F)nc(N)c1cncn12)[C@@H]1COc2cc(Cl)c(F)cc21 (single isomer, unassigned) [Ff-597]",< 100 nM
3,"CN(C(=O)c1cc2c(cc1F)nc(N)c1cncn12)[C@@H]1COc2cc(C(F)(F)F)cc(F)c21 (single isomer, unassigned) [Ff-601]",< 100 nM
4,"CN(C(=O)c1cc2c(cc1F)nc(N)c1cncn12)[C@@H]1COc2cc(Cl)c(Cl)cc21 (single isomer, unassigned) [Ff-605]",< 100 nM
5,"CN(C(=O)c1cc2c(cc1F)nc(N)c1cncn12)[C@@H]1COc2c1ccc(Cl)c2Cl (single isomer, unassigned) [Ff-606]",100 to 1000 nM
6,"Cc1ncn2c1c(N)nc1cnc(C(=O)N3[C@H](C)CC[C@@H]4Oc5cc(C(F)(F)F)ccc5[C@@H]43)cc12 (single isomer, unassigned) [Ff-611]",< 100 nM
7,"Cc1ncn2c1c(N)nc1cnc(C(=O)N3[C@@H]4c5ccc(C(F)(F)F)cc5O[C@@H]4CC[C@@H]3C)cc12 (single isomer, unassigned) [Ff-612]",100 to 1000 nM
8,"C[C@H]1CN(C(=O)c2cc3c(cc2F)nc(N)c2cncn23)[C@H]2Cc3ccccc3[C@H]2O1 (single isomer, unassigned) [Ff-623]",100 to 1000 nM
9,"C[C@@H]1CN(C(=O)c2ccc3nc(N)c4cncn4c3c2)[C@H]2c3cc(F)c(OC(F)(F)F)cc3C[C@H]2O1 (single isomer, unassigned) [Ff-628]",< 100 nM
10,"[2H]C([2H])([2H])[C@@H]1CN(C(=O)c2cc3c(cc2F)nc(N)c2cncn23)[C@H]2c3ccc(C(F)(F)F)cc3C[C@H]2O1 (single isomer, unassigned) [Ff-638]",< 100 nM
11,"[2H]C([2H])([2H])[C@H]1CN(C(=O)c2cc3c(cc2F)nc(N)c2cncn23)[C@H]2c3ccc(C(F)(F)F)cc3C[C@H]2O1 (single isomer, unassigned) [Ff-639]",< 100 nM
12,"Nc1nc2cc(F)c(C(=O)N3CCC[C@@H]4Oc5cc(C(F)(F)F)ccc5[C@@H]43)cc2n2c(Cl)ncc12 (single isomer, unassigned) [Ff-646]",< 100 nM
13,"Nc1nc2cc(F)c(C(=O)N3CCC[C@@H]4Oc5cc(C(F)(F)F)ccc5[C@@H]43)cc2n2cnc(Cl)c12 (single isomer, unassigned) [Ff-647]",< 100 nM
14,"C[C@@H]1CN(C(=O)c2cc3c(cc2F)nc(N)c2cncn23)[C@@H](c2cccc(C(F)F)n2)CO1 (single isomer, unassigned) [Ff-668]",100 to 1000 nM
15,"Cc1ncn2c1c(N)nc1ccc(C(=O)N3C[C@@H](C)O[C@@H]4Cc5cc(OC(F)(F)F)ccc5[C@@H]43)cc12 (single isomer, unassigned) [Fg-22]",< 100 nM
16,"Cc1ncn2c1c(N)nc1ccc(C(=O)N3C[C@H](C)O[C@@H]4Cc5cc(OC(F)(F)F)ccc5[C@@H]43)cc12 (single isomer, unassigned) [Fg-23]",< 100 nM

# Same assay, conditions: Homo sapiens, HCT-116; cell viability, HCT116 MTAP-deleted; class symbols; read-out: CC50
row,Compound,CC50
1,"CN(C(=O)c1cc2c(cc1F)nc(N)c1cncn12)[C@@H]1COc2ccc([C@H]3C[C@@H]3C#N)cc21 (stereo in doubt) [Ff-263, Trans-4-amino-N-((3S)-5-(2-cyanocyclopropyl)-2,3-dihydrobenzofuran-3-yl)-7-fluoro-N-methylimidazo[1,5-a]quinoxaline-8-carboxamide]",100 to 1000 nM
2,"CN(C(=O)C1CC1)N(Cc1cc(F)c(F)cc1F)C(=O)c1cc2c(cc1F)nc(N)c1cncn12 [Fa-8, 4-amino-N′-(cyclopropanecarbonyl)-7-fluoro-N′-methyl-N-(2,4,5-trifluorobenzyl)imidazo[1,5-a]quinoxaline-8-carbohydrazide]",< 100 nM
3,"CC(=O)N(C)N(Cc1ccc(C(F)(F)F)cc1Cl)C(=O)c1cc2c(cc1F)nc(N)c1cncn12 [Fb-1, N′-acetyl-4-amino-N-(2-chloro-4-(trifluoromethyl)benzyl)-7-fluoro-N′-methylimidazo[1,5-a]quinoxaline-8-carbohydrazide]",< 100 nM
4,"Cn1c(CN(C(=O)c2cc3c(cc2F)nc(N)c2cncn23)N2CCCC2=O)nc2cc(C(F)(F)F)ccc21 [Fb-7, 4-amino-7-fluoro-N-((1-methyl-5-(trifluoromethyl)-1H-benzo[d]imidazol-2-yl)methyl)-N-(2-oxopyrrolidin-1-yl)imidazo[1,5-a]quinoxaline-8-carboxamide]",< 100 nM
